# Test results as given in patent US20040254247A1, “Method and composition for treatnment of ocular hypertension and glaucoma” (priority 2001, published 2004).
# Where two headings read alike, the source gives them in different places.
# How the values were obtained:
# [1] = system: eye of Dutch rabbits; test: 13-week repeated ocular administration, irritable response in cornea, conjunctiva or iris; type: in vivo
# Experimental: The administration was performed 4 times a day with 2-hour intervals for 13 weeks. The cornea, conjunctiva and iris were observed about occurrence of irritable response before, and 4, 8, and 13 weeks after the initiation of the administration. The observation was performed within the time from 0.5 hour to 2 hours after the last administration of the day. The cornea was observed about a presence of opacity and its area in the cornea. The conjunctiva was observed about occurrence of hyperemia, redness and swelling. The iris was observed about occurrence of hyperemia, congestion, swelling and hemorrhage. The ratio of cases showing irritable response in the cornea, conjunctiva or iris was evaluated by percent in the group.
# [2] = system: eye of healthy volunteers; test: Intraocular pressure lowering effect in healthy volunteers (applanation tonometer); type: in vivo, human; conditions: for Intraocular pressure lowering effect (difference in IOP between test eye and control eye): 12 μg/eye; for lowered the IOP by, as compared with the control eye: 12 μg
# Experimental: The vehicle solution was ocularly administered to the contralateral eye (control eye). Intraocular pressure (IOP) was measured by means of an applanation tonometer before, and 4, 6, and 12 hours after the administration. The IOP lowering effect of the test compound was evaluated based on difference in IOP between test eye and the control eye at each time point of IOP measurement.
# [3] = system: monkey eyes; test: Effects on IOP in monkey eyes (applanation pneumatonometer); type: in vivo, cynomolgus monkeys; conditions: 15 μg/eye
# Experimental: (§1) Nine male cynomolgus monkeys (body weights of animals ranged between 3.2 and 5.4 kg) without abnormalities in the anterior segment of the eye were used.
# (§2) The left eye received an equal volume of the vehicle.
# Intraocular pressure (IOP) measurements were conducted by means of an applanation pneumatonometer (Model 30 Classic™, Mentor O & O, Inc., USA) immediately before the administration (0-hour), and at 2, 4, 8, 12, 24, 28, and 32 hours after the administration.
# [4] = system: monkey eyes; test: Eye irritancy scoring in monkeys (criteria based on Draize test); type: in vivo, cynomolgus monkeys; parameters: key to Eye irritancy (Score) Conjunctivae Chemosis: 0: No swelling; 1: Any swelling above normal (includes nictitating membrane); 2: Obvious swelling with partial eversion of the lids; 3: Swelling with lids about half closed; 4: Swelling with lids about half closed to completely closed; conditions: 15 μg/eye
# Description: as §1, §2
# Eye irritancy was scored according to the criteria presented in Table 4 at the same time points as IOP measurements. These criteria are based on those of Draize test.
# [5] = system: healthy human eyes; conditions: dose of 5 μg, cited from earlier work
# [6] = system: monkey eyes; conditions: dose of 3 μg; cited from earlier work
# [7] = system: monkey eyes; conditions: 50 μg per eye; cited from earlier work
# [8] = system: eye of white rabbits; test: Incidence of conjunctival hyperemia after single ocular administration; conditions: 50 μg eye drop, once to one eye, two hours after the administration
# Experimental: The presence of conjunctival hyperemia was examined at two hours after the administration and the ratio of cases showing conjunctival hyperemia was evaluated by percent in each group.
compound,measurement,setting,value
"CC(C)OC(=O)CCC/C=C\C[C@@H]1[C@@H](CCC(=O)CCc2ccccc2)[C@H](O)C[C@@H]1O [13,14-dihydro-15-keto-17-phenyl-18,19,20-trinor-PGF2α isopropyl ester]","effect on the cornea, conjunctiva and iris",[1]; 30 μg/eye each 4 times a day for 13 weeks,no effect
same,Incidence rate of ocular irritation,"[1]; 4 weeks after initiation, 30 μg/eye 4 times/day",0%
same,Incidence rate of ocular irritation,"[1]; 8 weeks after initiation, 30 μg/eye 4 times/day",0%
same,Incidence rate of ocular irritation,"[1]; 13 weeks after initiation, 30 μg/eye 4 times/day",0%
same,Incidence rate of ocular irritation,[1]; Pre (before initiation of administration),0%
same,Intraocular pressure lowering effect (difference in IOP between test eye and control eye),[2]; 4 hours after administration,−1.0 mmHg
same,"lowered the IOP by, as compared with the control eye",[2]; 4 hours after the administration,1.0 mmHg
same,Intraocular pressure lowering effect (difference in IOP between test eye and control eye),[2]; 6 hours after administration,−0.8 mmHg
same,"lowered the IOP by, as compared with the control eye",[2]; 6 hours after the administration,0.8 mmHg
same,Intraocular pressure lowering effect (difference in IOP between test eye and control eye),[2]; 12 hours after administration,−1.1 mmHg
same,"lowered the IOP by, as compared with the control eye",[2]; 12 hours after the administration,1.1 mmHg
same,IOP,"[3]; 0 hr (immediately before administration), right eye, Mean ± SE",19.7 ± 0.6 mmHg
same,IOP reduction,[3]; topical,significant IOP reduction
same,Eye irritancy (Score) Conjunctivae Chemosis,[4]; 2 hr after administration,0
same,Eye irritancy (Score) Conjunctivae Chemosis,[4]; 4 hr after administration,0
same,Eye irritancy (Score) Conjunctivae Chemosis,[4]; 8 hr after administration,0
same,Eye irritancy (Score) Conjunctivae Chemosis,[4]; 12 hr after administration,0
same,Eye irritancy (Score) Conjunctivae Chemosis,[4]; 24 hr after administration,0
same,Eye irritancy (Score) Conjunctivae Chemosis,[4]; 28 hr after administration,0
same,Eye irritancy (Score) Conjunctivae Chemosis,[4]; 32 hr after administration,0
same,Eye irritancy (Score) Conjunctivae Chemosis,[4]; Before administration,0
same,signs or symptoms of ocular irritation,[4]; after topical administration,no signs or symptoms
same,intraocular pressure reducing effects,[5]; healthy human eyes,showed intraocular pressure reducing effects
same,"side effect such as conjunctival hyperemia, ocular irritation and foreign body sensation",[5]; in the human,no side effect
same,intraocular pressure reducing effects,[6],showed intraocular pressure reducing effects
same,intraocular pressure reducing effects,[7],showed intraocular pressure reducing effects
same,Incidence Rate of Conjunctival Hyperemia,[8],33%
